Structures can show the parent of a compound that is named as a salt.
Molecular target: T1, rh beta tryptase (Homo sapiens, UniProt P20231)
T1 construct: purchased Promega
Assay: Tryptase inhibition test (cleavage of N-p-tosyl-Gly-Pro-Lys-para-nitroaniline, p-nitroaniline measured at 405 nm)
Assay type: biochemical
Conditions: concentration at which 50% of the tryptase enzyme activity is inhibited; substrate 0.6 mM, pH 7.4, 37° C.
Description: The compounds according to the invention are characterised by their tryptase-inhibiting activity. This ability to inhibit tryptase was investigated using the test described below.
The measurement is carried out in Tris HCl buffer (100 mM), which additionally contains calcium (5 mM) and heparin ([…]), at pH 7.4. The standard used is rh beta tryptase which may be obtained commercially from Promega, for example. The substrate used is N-p-tosyl-Gly-Pro-Lys-para-nitroaniline in a concentration of 0.6 mM. The substrate is digested with tryptase to form p-nitroaniline which can be measured at 405 nm. Usually, an incubation period of 5 minutes and an incubation temperature of 37° C. are chosen. The enzyme activity used is 0.91 U/ml. The measurements are carried out in an Autoanalyser (Cobas Bio) made by Hofmann LaRoche. The potential inhibitory substances are used in concentrations of 10 μM in the screening, the inhibition of the tryptase being given in percent. The IC50 is determined at over 70% inhibition (concentration at which 50% of the enzyme activity is inhibited). After 5 minutes' pre-incubation of the potential inhibitory substances, the substrate is added to start the reaction, the formation of p-nitroaniline being taken as a measurement of the enzyme activity after 5 minutes, after testing the linearity.
The data obtained after the above test has been carried out (% inhibition) are assembled in Table 25 for the compounds according to the invention. The IC50 values obtained for the compounds according to the invention can be found in Table 26.
Table 26 contains the IC50 binding values obtained for the compounds according to the invention. These were measured as described above.

T1 sequence (P20231 31-275): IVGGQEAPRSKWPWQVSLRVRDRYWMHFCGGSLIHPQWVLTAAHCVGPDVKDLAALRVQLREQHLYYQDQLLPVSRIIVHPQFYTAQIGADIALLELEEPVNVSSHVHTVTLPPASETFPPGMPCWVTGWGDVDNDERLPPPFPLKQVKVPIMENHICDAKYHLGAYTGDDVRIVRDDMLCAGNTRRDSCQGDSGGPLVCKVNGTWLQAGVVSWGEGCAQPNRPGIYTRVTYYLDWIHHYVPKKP

Structure (SMILES)	IC50
Cn1c(CCc2ccc(C(=N)N)cc2)nc2cc(C(=O)N(CCC(=N)N)c3ccccc3)ccc21 [Example 21, 2-[2-(4-Amidinophenyl)-ethyl]-1-methyl-benzimidazol-5-yl-carboxylic Acid-N-(2-amidinoethyl)-N-phenyl-amide-dihydrochloride]	51 nM
CCc1cccc(N(CCC(=N)N)C(=O)c2ccc3c(c2)nc(CCc2ccc(C(=N)N)cc2)n3C)c1 [Example 22, 2-[2-(4-Amidinophenyl)-ethyl]-1-methyl-benzimidazol-5-yl-carboxylic Acid-N-(2-amidinoethyl)-N-(3-ethyl-phenyl)-amide-dihydrochloride]	56 nM
Cn1c(CCc2ccc(C(=N)N)cc2)nc2cc(C(=O)N(CCC(=N)N)c3cccc(Oc4ccccc4)c3)ccc21 [Example 23, 2-[2-(4-Amidinophenyl)-ethyl]-1-methyl-benzimidazol-5-yl-carboxylic Acid-N-(2-amidinoethyl)-N-(3-phenoxy-phenyl)-amide-dihydrochloride]	49 nM
Cn1c(CCc2ccc(C(=N)N)cc2)nc2cc(C(=O)N(CCC(=N)N)CCc3ccccc3)ccc21 [Example 24, 2-[2-(4-Amidinophenyl)-ethyl]-1-methyl-benzimidazol-5-yl-carboxylic Acid-N-(2-amidinoethyl)-N-(2-phenylethyl)-amide-dihydrochloride]	16 nM
Cn1c(CCc2ccc(C(=N)N)cc2)nc2cc(C(=O)N(CCC(=N)N)C3CCCCCCC3)ccc21 [Example 25, 2-[2-(4-Amidinophenyl)-ethyl]-1-methyl-benzimidazol-5-yl-carboxylic Acid-N-(2-amidinoethyl)-N-cyclooctyl-amide-dihydrochloride]	55 nM
Cc1ccc(N(CCC(=N)N)C(=O)c2ccc3c(c2)nc(CCc2ccc(C(=N)N)cc2)n3C)cc1 [Example 26, 2-[2-(4-Amidinophenyl)-ethyl]-1-methyl-benzimidazol-5-yl-carboxylic Acid-N-(2-amidinoethyl)-N-(4-methyl-phenyl)-amide-dihydrochloride]	168 nM
CC(C)N(CCC(=N)N)C(=O)c1ccc2c(c1)nc(CCc1ccc(C(=N)N)cc1)n2C [Example 27, 2-[2-(4-Amidinophenyl)-ethyl]-1-methyl-benzimidazol-5-yl-carboxylic Acid-N-(2-amidinoethyl)-N-iso-propyl-amide-dihydrochloride]	153 nM
CCOC(=O)C(Cc1ccc(C(=N)N)cc1)N(C)C(=O)c1ccc2c(c1)nc(CCc1ccc(C(=N)N)cc1)n2C (centres unmarked) [Example 29, Ethyl 2-{2-[2-(4-Amidinophenyl)-ethyl]-1-methyl-benzimidazol-5-yl-carbonyl-(methylamino)}-3-(4-amidinophenyl)-propionate-formate]	158 nM
Cn1c(CCc2ccc(C(=N)N)cc2)nc2cc(C(=O)N(CCNCc3ccccc3)C3CCCCC3)ccc21 [Example 36, 2-[2-(4-Amidinophenyl)-ethyl]-1-methyl-benzimidazol-5-yl-carboxylic Acid-[N-(2-(N′-benzylamino)-ethyl)-N-cyclohexyl-amide]-dihydrochloride]	67 nM

More lines, now with the values ahead:

IC50	Structure (SMILES)
68 nM	Cn1c(CCc2ccc(C(=N)N)cc2)nc2cc(C(=O)N(CCN)C3CCCCC3)ccc21 [Example 37, 2-[2-(4-Amidinophenyl)-ethyl]-1-methyl-benzimidazol-5-yl-carboxylic Acid-[N-(2-amino-ethyl)-N-cyclohexyl-amide]-dihydrochloride]
113 nM	Cn1c(CCc2ccc(C(=N)N)cc2)nc2cc(C(=O)NCCNc3ccccc3)ccc21 [Example 38, 2-[2-(4-Amidinophenyl)-ethyl]-1-methyl-benzimidazol-5-yl-carboxylic Acid-N-(2-phenylamino-ethyl)-amide-dihydrochloride]
192 nM	Cn1c(CCc2ccc(CN)cc2)nc2cc(C(=O)NCCC(c3ccccc3)c3ccccc3)ccc21 [Example 40, 2-[2-(4-Aminomethyl-phenyl)-ethyl]-1-methyl-benzimidazol-5-yl-carboxylic Acid-N-(3,3-diphenylpropyl)-amide-dihydrochloride]
172 nM	Cc1ccccc1N1CCCN(C(=O)c2ccc3c(c2)nc(CCc2ccc(CN)cc2)n3C)CC1 [Example 41, 2-[2-(4-Aminomethyl-phenyl)-ethyl]-1-methyl-benzimidazol-5-yl-carboxylic Acid-[N′-(2-methyl-phenyl)-diazepide]-hydrochloride]
836 nM	Cn1c(CCc2ccc(CN)cc2)nc2cc(C(=O)N(CCCc3ccccc3)Cc3ccc(CN)cc3)ccc21 [Example 42, 2-[2-(4-aminomethyl-phenyl)-ethyl]-1-methyl-benzimidazol-5-yl-carboxylic Acid-N-(4-aminomethyl-benzyl)-N-(3-phenylpropyl)-amide-dihydrochloride]
319 nM	Cn1c(CCc2ccc(CN)cc2)nc2cc(C(=O)N(CCC(c3ccccc3)c3ccccc3)Cc3ccc(CN)cc3)ccc21 [Example 43, 2-[2-(4-Aminomethyl-phenyl)-ethyl]-1-methyl-benzimidazol-5-yl-carboxylic Acid-N-(4-aminomethylbenzyl)-N-(3,3-diphenylpropyl)-amide-dihydrochloride]
118 nM	Cc1cccc(N2CCN(C(=O)c3ccc4c(c3)nc(CCc3ccc(C(=N)N)cc3)n4C)CC2)c1 [Example 47, 2-[2-(4-Amidinophenyl)-ethyl]-1-methyl-benzimidazol-5-yl-carboxylic Acid-[N′-(3-methylphenyl)-piperazide]]
147 nM	CCOc1cccc(N2CCN(C(=O)c3ccc4c(c3)nc(CCc3ccc(C(=N)N)cc3)n4C)CC2)c1 [Example 48, 2-[2-(4-Amidinophenyl)-ethyl]-1-methyl-benzimidazol-5-yl-carboxylic Acid-[N′-(3-ethoxyphenyl)-piperazide]]
152 nM	CC(C)Oc1cccc(N2CCN(C(=O)c3ccc4c(c3)nc(CCc3ccc(C(=N)N)cc3)n4C)CC2)c1 [Example 49, 2-[2-(4-Amidinophenyl)-ethyl]-1-methyl-benzimidazol-5-yl-carboxylic Acid-[N ′-(3-isopropyloxyphenyl)-piperazide]]
176 nM	Cn1c(CCc2ccc(C(=N)N)cc2)nc2cc(C(=O)N3CCN(C4CCCC4)CC3)ccc21 [Example 50, 2-[2-(4-Amidinophenyl)-ethyl]-1-methyl-benzimidazol-5-yl-carboxylic Acid-[N′-(cyclopentyl)-piperazide]]
231 nM	Cc1ccccc1N1CCN(C(=O)c2ccc3c(c2)nc(CCc2ccc(C(=N)N)cc2)n3C)CC1 [Example 51, 2-[2-(4-Amidinophenyl)-ethyl]-1-methyl-benzimidazol-5-yl-carboxylic Acid-[N′-(2-methylphenyl)-piperazide]]
231 nM	Cn1c(CCc2ccc(C(=N)N)cc2)nc2cc(C(=O)N3CCN(c4ccccn4)CC3)ccc21 [Example 52, 2-[2-(4-Amidinophenyl)-ethyl]-1-methyl-benzimidazol-5-yl-carboxylic Acid-[N′-(2-pyridyl)-piperazide]]
241 nM	COc1ccccc1N1CCN(C(=O)c2ccc3c(c2)nc(CCc2ccc(C(=N)N)cc2)n3C)CC1 [Example 53, 2-[2-(4-Amidinophenyl)-ethyl]-1-methyl-benzimidazol-5-yl-carboxylic Acid-[N′-(2-methoxyphenyl)-piperazide]]
305 nM	CCOc1ccccc1N1CCN(C(=O)c2ccc3c(c2)nc(CCc2ccc(C(=N)N)cc2)n3C)CC1 [Example 54, 2-[2-(4-Amidinophenyl)-ethyl]-1-methyl-benzimidazol-5-yl-carboxylic Acid-[N′-(2-ethoxyphenyl)-piperazide]]

From US6512000B1, “Aminocarbonyl-substituted benzimidazoles having tryptase-inhibitory activity” (Boehringer Ingelheim Pharma KG, priority 1999, dated 2003)
